In general, AC50 refers to the midpoint of the concentration-response curve, whichever way the signal moves. A word on the IC50: it is the concentration at which inhibition is half-maximal.

In assay [1] the target is T1, Short transient receptor potential channel 4 (Mus musculus, UniProt Q9QUQ5).
T1 sequence (Q9QUQ5 whole entry): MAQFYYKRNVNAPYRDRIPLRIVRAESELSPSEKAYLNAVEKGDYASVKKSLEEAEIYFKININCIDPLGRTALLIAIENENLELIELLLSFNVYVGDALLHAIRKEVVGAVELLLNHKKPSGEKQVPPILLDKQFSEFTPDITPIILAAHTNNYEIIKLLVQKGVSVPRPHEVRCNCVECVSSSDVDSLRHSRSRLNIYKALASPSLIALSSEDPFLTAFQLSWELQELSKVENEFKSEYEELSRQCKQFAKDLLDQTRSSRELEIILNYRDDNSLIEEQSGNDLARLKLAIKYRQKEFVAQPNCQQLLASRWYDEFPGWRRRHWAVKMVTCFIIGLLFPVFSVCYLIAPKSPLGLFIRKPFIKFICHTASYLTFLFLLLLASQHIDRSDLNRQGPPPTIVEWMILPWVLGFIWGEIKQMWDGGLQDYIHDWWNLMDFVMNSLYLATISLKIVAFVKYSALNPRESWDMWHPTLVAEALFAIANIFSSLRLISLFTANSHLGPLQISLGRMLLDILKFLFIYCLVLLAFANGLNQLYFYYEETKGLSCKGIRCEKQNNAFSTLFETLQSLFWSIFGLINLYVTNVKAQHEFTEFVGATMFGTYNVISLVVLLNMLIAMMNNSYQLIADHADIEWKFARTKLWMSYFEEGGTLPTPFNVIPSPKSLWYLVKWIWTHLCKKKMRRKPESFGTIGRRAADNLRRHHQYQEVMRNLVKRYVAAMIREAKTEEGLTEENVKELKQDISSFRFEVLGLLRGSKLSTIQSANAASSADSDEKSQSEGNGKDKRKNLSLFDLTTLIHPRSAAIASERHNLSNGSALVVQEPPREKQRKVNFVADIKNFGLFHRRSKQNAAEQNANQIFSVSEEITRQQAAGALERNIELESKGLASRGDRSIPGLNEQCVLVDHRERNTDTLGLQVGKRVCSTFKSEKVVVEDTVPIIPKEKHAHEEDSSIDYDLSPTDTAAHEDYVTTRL
Nature of the assay: calcium entry via TRPC4 opening agents – cell-based, HEK293 TRPC4/mu-opioid, Fluo-4 calcium, dose response (AID 434937). The assay is classed as functional.

The target of assay [2] is Cytochrome P450 2C19 (Homo sapiens, UniProt P33261). Nature of the assay: Cytochrome panel assay with activity outcomes. Panel member name: p450-cyp2c19 Compounds with AC50 equal or less than 10 uM are considered active. The note with it: read-out: AC50. The assay is classed as functional.
Chain of Cytochrome P450 2C19 (P33261 whole entry): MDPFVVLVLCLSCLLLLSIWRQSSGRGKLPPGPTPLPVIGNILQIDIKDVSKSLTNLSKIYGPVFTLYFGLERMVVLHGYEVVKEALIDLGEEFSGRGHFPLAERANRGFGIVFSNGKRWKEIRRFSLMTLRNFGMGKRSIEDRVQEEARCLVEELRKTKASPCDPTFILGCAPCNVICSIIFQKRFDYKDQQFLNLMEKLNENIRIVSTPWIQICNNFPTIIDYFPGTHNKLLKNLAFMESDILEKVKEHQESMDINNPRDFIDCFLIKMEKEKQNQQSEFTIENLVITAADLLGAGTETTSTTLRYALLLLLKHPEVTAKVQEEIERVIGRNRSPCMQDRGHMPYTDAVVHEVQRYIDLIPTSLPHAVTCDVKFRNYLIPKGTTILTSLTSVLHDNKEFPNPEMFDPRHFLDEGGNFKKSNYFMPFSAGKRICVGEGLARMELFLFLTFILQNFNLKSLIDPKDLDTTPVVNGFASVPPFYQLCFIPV
The target in assay [3] is T2, Rac GTPase-activating protein 1 (Homo sapiens, UniProt Q9H0H5).
T2 sequence (Q9H0H5 whole entry): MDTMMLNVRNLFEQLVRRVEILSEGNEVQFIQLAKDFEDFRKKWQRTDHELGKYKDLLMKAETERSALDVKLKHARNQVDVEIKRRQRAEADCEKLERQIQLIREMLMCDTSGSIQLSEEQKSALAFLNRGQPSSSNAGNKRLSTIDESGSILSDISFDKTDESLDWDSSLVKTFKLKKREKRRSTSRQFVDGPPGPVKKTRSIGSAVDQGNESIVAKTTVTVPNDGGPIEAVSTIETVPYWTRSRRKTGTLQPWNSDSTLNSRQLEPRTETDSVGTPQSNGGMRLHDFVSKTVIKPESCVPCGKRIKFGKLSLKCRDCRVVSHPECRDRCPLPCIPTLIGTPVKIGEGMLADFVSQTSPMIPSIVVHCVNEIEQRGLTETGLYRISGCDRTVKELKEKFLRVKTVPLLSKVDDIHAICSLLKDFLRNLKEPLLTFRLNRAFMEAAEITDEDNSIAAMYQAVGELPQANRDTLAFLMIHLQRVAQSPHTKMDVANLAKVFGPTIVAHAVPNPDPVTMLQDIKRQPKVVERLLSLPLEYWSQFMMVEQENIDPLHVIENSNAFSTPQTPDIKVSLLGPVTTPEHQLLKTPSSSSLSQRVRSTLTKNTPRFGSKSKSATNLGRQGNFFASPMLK
Nature of the assay: blockers of MgcRacGAP-driven Rac1 GTP hydrolysis – biochemical, ADP Hunter fluorescence, primary and confirmatory, confirmation (AID 624330). Format: functional.

For assay [4], the target named is Cytochrome P450 2C9 (Homo sapiens, UniProt P11712).
Chain of Cytochrome P450 2C9 (P11712 whole entry): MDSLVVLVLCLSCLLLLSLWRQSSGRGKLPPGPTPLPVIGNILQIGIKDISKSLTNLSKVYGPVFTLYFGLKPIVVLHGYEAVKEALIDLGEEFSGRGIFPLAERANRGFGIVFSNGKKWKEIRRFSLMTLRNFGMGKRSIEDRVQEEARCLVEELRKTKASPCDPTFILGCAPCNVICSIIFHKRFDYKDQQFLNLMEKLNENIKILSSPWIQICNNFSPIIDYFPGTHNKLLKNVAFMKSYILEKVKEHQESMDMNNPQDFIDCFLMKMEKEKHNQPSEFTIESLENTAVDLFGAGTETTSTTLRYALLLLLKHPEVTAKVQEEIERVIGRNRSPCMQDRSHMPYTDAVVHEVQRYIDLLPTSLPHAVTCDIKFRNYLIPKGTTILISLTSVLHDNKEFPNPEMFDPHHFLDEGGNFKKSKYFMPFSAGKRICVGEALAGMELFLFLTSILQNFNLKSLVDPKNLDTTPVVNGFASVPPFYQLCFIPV
The subject of assay [5] is HeLa. Nature of the assay: ATP-based viability loss in HeLa cells – cell-based, CellTiter-Glo luminescence, cherry-pick samples, cytotoxicity control for MITF activator project, dose response (AID 540259). Format: functional. The note with it: Homo sapiens. On the technique in general: ATP-based viability assays read luminescence as a measure of living cells.
Assay [6] can be described thus: Luminescence Cell-Based Dose Confirmation HTS to Identify Activators of 5'UTR Stem-Loop Driven Alpha-Synuclein mRNA Translation in H4 Neuroglioblastoma Cells. [Related pubchem assays: 1829 (Project Summary), 1814 (Primary HTS)]. Format: functional.
Assay [7] can be described thus: Luminescence Cell-Based Dose Response HTS to Identify Activators of Luciferase Translation or Activity in H4 […] Cells. [Related pubchem assays: 1829 (Project Summary), 1814 (Primary HTS)]. Format: functional.
Assay [8] relates to H4. Put plainly: Luminescence Cell-Based Dose Response HTS to Identify Activators of 5'UTR Stem-Loop Driven Prion Protein mRNA Translation in H4 Neuroglioblastoma Cells. [Related pubchem assays: 1829 (Project Summary), 1814 (Primary HTS)]. Format: functional. The note with it: Homo sapiens.
For assay [9], the target named is T1, Short transient receptor potential channel 4. Nature of the assay: block of DAMGO-driven TRPC4 calcium entry – cell-based, HEK293 TRPC4/mu-opioid, Fluo-4 calcium, dose response (AID 434942).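 Further: potency of inhibitors blocking the TRPC4 calcium response.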 The assay is classed as functional.
A short description of assay [10]: Trypanosoma cruzi growth suppression in host cells – NIH3T3 host cells, beta-gal luminescence, confirmation (AID 2044).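 Further: intracellular parasites grown in NIH/3T3 mouse fibroblasts as host cells; luminescent beta-galactosidase reporter signal from transgenic T. cruzi replicating inside host cells; inhibitors lower the luminescence signal.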 Format: functional, cell-based.
Assay [11] in a line: NIH3T3 cell viability loss – ATP luminescence, mouse fibroblasts, counter-screen, dose response (AID 2010).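 Further: cells exposed to compound for about 90 hours before reading.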 The assay is classed as functional, cell-based.
Assay [12] concerns the target T3, Corticotropin-releasing factor receptor 2/Corticotropin-releasing factor-binding protein (Homo sapiens, UniProt P24387+Q13324).
T3 sequence (Q13324 whole entry): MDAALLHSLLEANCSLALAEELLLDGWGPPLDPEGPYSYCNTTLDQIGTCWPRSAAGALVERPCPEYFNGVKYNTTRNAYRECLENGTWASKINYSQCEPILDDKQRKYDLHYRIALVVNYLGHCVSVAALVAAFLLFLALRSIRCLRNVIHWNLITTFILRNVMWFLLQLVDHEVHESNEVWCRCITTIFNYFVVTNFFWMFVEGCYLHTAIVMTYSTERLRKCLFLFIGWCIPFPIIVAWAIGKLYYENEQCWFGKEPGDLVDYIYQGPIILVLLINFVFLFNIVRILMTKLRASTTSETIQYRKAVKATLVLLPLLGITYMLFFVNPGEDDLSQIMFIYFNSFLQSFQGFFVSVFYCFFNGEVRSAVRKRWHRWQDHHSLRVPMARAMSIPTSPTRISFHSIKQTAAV
T3 sequence (P24387 whole entry): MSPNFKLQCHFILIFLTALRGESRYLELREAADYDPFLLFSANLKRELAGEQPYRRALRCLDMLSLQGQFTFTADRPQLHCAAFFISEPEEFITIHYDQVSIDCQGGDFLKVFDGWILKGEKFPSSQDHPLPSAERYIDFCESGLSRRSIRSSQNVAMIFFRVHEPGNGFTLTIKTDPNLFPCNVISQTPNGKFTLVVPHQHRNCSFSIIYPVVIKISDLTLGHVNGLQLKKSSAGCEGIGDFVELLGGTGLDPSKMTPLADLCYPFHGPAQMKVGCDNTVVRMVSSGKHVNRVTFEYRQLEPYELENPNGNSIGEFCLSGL
Nature of the assay: activators of CRF receptor 2 with binding protein – uHTS hits, confirmation (AID 602473). The assay is classed as functional. Particulars: read-out: EC50_Mean.

Activity calls are given as the source filed them.

On to `CSCCC(NS(=O)(=O)c1ccc2c(c1)c(=O)n(C)c(=O)n2C)C(=O)NC1CCN(Cc2ccccc2)CC1` (centres undefined), for which the EC50 in assay [1] was 3.76 µM (active).

`Cc1ccc(-n2[nH]c(=O)c3cccnc32)cc1`: the results for the concentration at half-maximal activity (AC50) in [2] and in assay [4] were 25.1 µM (inconclusive) and 28.2 µM (inconclusive), respectively. In addition, in assay [3], the IC50 was 95.2 µM (active).

As to `CCCc1ccc(-c2cc(C(=O)NCCc3ccc(S(N)(=O)=O)cc3)c3ccccc3n2)cc1`, the AC50 in [5] was 37.5 µM (active).

As for `CNCCOc1ccc(Cl)c(Cl)c1`, the EC50 in [1] was 0.944 µM (active).

Consider `O=C(NC(=S)NCc1nc2ccccc2[nH]1)c1ccccc1F`, for which the EC50 in assay [6] is 70.7 µM (active); in assay [7] it was 25.6 µM (active); in assay [8] it was 9.16 µM (active).

Take `COc1ccc(C(CNC(=O)c2cccc(NS(=O)(=O)c3ccc(Br)cc3)c2)N(C)C)cc1` (centres undefined): in [1], the EC50 is 5.31 µM (active).

As to `O=C(NC1=NCCS1)C12CC3CC(C1)CC(C(=O)NC1=NCCS1)(C3)C2`, the EC50 in assay [6] was > 120 µM (not active); in [7] it was 13.6 µM (inconclusive); in [8] it was 9.63 µM (active).

In the case of `Oc1c(Br)cc(Br)cc1/C=N/c1ccc2[nH]ncc2c1`, the EC50 in [9] is 4.22 µM (active).

As for `COCCN(C(=O)COC(=O)/C=C/c1ccccc1Cl)c1c(N)n(Cc2ccccc2)c(=O)[nH]c1=O`, the results for the EC50 in assay [6], in assay [7] and in assay [8] were 26.2 µM (active), 9.52 µM (active) and > 120 µM (not active), respectively.

As for `Cc1cccc(-n2ncc3c(N4CC(C)CC(C)C4)ncnc32)c1` (centres undefined), in assay [5], the AC50 was 163 µM (active).

Regarding `CC(NCc1cc(Br)ccc1OCC(=O)NCc1ccccc1)c1ccccc1` (centres undefined), the EC50 in [10] was 2.53 µM (active); in assay [11], > 60 µM (not active); in [9], 1.06 µM (active); in [1] it was 7.5 µM (active).

`CCOc1ccc2ncc(C(=O)c3ccc(OC)cc3)c(N3CCN(CC)CC3)c2c1`: the EC50 in [1] is 5.96 µM (active).

As to `OCCNc1nc(NCc2ccccc2)c2ccccc2n1`, the EC50 in [9] was 3.35 µM (active).

In the case of `COc1cccc(CNC(=O)CN2C(=O)CSc3ccc(S(=O)(=O)N4CCCCC4)cc32)c1`, the EC50 in assay [6], in assay [7] and in [8] was > 120 µM (not active) throughout.

As to `O=C(c1ccc(F)cc1)c1ccc(N2CCCCC2)cc1`, the AC50 in assay [5] was 57.7 µM (active).

As to `CCn1c(COc2ccccc2C)nc2ccccc21`, the AC50 in assay [5] was 81 µM (active). Also, the EC50 in assay [12] is 4.28 µM (active).

As to `CCCCN(CCCC)C(=N)Nc1nc(C)cc(C)n1`, the EC50 in [9] is 3.76 µM (active).

Take `Cc1ccc(NC(=O)CN2CCCC2c2cccn2C)c(Br)c1` (centres undefined): the AC50 in assay [5] is 52.2 µM (active).

Turning to `COc1cccc2cc(CC(=O)c3ccc(C)cc3C)c(=O)oc12`, the EC50 is 43.3 µM (active) in assay [6], 43.4 µM (active) in assay [7] and 11 µM (active) in assay [8]. In assay [5], the half-maximal activity concentration (AC50) was 83.9 µM (active).

With `CC(Oc1ccc(Cl)cc1Cl)c1nc(-c2ccccn2)no1` (centres undefined), the EC50 in assay [9] was 1.88 µM (active).

As to `Oc1nc2cc3c(cc2cc1CN(Cc1nnnn1C1CCCC1)C1CCCC1)OCCO3`, the EC50 was > 120 µM (not active) in assay [6], > 120 µM (not active) in assay [7] and 59.4 µM (active) in assay [8].

Turning to `Nc1c(-c2ccc(Cl)cc2)cnn1-c1ccccc1`, the AC50 in [5] was 64.2 µM (active).

Regarding `CC(C)=CCCC(C)CN1CCC(n2nccc2NC(=O)C2CCCC2)CC1` (centres undefined), the EC50 in [9] is 5.31 µM (active).

On to `Cc1cc2cc(C#N)c(NCCN=C(S)NCCCN3CCOCC3)nc2cc1C`, for which the EC50 in [9] is 5.31 µM (active).

On to `CCCCNCc1cc(Cl)c(OCCC)c(OCC)c1`, for which the EC50 in assay [9] was 2.37 µM (active).

Regarding `NC(=O)c1nsc(C(=O)N(Cc2ccc(F)cc2)C(C(=O)NCC2CCCO2)c2ccc(O)cc2)c1N` (centres undefined), the EC50 in assay [9] is 2.37 µM (active).

Take `Fc1ccc(-n2cc(CNCCc3ccncc3)c(-c3ccccc3Cl)n2)cc1`: the EC50 in assay [9] was 3.35 µM (active).

Regarding `COc1cccc(/C=C/C(=O)OC(C)C(=O)Nc2c(C)n(C)n(-c3ccccc3)c2=O)c1` (centres undefined), the results for the EC50 in assay [6], in [7] and in assay [8] were 10.5 µM (active), 49.1 µM (active) and > 120 µM (not active), respectively.
